How the values were obtained:
[1] = biological target: T1, PI3K-α (PIK3CA) wild-type (WT), p110α/p85α complex (Homo sapiens, UniProt P42336); test: PI3K-alpha kinase (PIK3CA) biochemical activity, ADP-Glo, wild-type; conditions: Soy PI lipid substrate
T1 construct: Recombinant, catalytically active human full length PIK3KA Wild-type and H1047R mutant; 6×His (N); purchased EMD Millipore Sigma 14-602M
Summary of the method: (§1)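 ADP formation measured by ADP-Glo luminescence after reaction at 27 °C to about 10% ATP turnover, using 20 uM ATP, 50 uM PIP2diC8 or soy PI lipid, HEPES pH 7.4 with MgCl2. Enzyme (1-5 nM WT or H1047R p110α/p85α) and compound preincubated 1 h first; 10-point 1:3 curves fitted four-parameter for IC50.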

[2] = biological target: PI3K-α (PIK3CA) in MDA-MB-453 cells (Homo sapiens, UniProt P42336); test: PI3K-alpha kinase (PIK3CA) in vitro cell based assay, MDA-MB-453 cells, SureFire Ultra AlphaLisa; conditions: read-out: PI3K-α (PIK3CA) in vitro cell based assay IC50
PI3K-α (PIK3CA) in MDA-MB-453 cells, sequence (P27986 2-724): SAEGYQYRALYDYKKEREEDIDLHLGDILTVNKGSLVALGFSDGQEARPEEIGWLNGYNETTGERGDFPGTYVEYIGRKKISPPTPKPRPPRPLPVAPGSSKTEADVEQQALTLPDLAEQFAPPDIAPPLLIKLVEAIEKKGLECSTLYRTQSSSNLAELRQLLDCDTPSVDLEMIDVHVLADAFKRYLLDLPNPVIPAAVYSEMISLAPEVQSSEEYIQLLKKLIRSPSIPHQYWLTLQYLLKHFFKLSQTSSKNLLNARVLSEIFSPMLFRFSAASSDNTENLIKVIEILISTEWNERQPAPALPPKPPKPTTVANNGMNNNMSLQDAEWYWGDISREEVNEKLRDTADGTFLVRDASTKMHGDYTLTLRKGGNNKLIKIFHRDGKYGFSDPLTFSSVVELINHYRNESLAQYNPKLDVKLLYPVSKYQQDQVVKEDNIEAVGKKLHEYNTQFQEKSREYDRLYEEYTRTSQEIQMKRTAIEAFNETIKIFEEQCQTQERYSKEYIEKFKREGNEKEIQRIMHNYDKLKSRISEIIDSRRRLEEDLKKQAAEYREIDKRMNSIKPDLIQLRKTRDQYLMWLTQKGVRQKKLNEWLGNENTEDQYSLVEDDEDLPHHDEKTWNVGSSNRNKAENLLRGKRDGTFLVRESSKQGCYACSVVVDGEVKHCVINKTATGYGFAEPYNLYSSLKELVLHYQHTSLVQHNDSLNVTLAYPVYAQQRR
PI3K-α (PIK3CA) in MDA-MB-453 cells, sequence (P42336 whole entry): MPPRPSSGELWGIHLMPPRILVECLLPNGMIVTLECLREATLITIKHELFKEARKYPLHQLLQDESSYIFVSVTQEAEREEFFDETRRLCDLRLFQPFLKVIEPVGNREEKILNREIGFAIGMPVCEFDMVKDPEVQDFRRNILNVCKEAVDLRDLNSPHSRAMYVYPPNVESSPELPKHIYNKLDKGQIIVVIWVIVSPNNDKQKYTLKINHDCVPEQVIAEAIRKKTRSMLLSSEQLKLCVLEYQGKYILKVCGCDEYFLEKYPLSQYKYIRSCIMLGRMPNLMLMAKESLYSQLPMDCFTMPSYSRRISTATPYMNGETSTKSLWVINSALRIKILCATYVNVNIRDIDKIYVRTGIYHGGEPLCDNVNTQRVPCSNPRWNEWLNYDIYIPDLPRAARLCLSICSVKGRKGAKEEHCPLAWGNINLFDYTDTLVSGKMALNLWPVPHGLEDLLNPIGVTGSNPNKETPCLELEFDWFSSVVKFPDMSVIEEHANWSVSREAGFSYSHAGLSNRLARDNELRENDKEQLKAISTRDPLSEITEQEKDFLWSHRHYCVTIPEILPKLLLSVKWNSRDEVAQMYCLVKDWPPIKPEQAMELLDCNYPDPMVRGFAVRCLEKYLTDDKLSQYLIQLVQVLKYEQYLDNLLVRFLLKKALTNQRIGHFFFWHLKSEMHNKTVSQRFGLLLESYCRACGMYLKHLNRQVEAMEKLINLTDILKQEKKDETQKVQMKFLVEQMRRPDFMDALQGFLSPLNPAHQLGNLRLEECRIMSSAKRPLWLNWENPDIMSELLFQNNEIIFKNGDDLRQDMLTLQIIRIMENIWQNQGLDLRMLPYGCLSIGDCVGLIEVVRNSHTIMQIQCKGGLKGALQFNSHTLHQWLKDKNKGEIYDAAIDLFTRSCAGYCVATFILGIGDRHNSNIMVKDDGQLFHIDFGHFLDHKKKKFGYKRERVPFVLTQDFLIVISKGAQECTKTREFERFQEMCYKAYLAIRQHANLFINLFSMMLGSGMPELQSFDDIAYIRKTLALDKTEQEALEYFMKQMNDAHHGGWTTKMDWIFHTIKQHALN
Experimental: PI3K-Alpha Kinase (PIK3CA) Activity In Vitro Cell Based Assay and Determining IC50 Values for Inhibitors
The MDA-MB-453 (ATCC-HTB-131) cell line was obtained from the American Type Culture Collection (Manassas, VA). Cells were maintained in Dulbecco's Modified Eagle Media (DMEM, Gibco 11965-092) supplemented with 10% Fetal Bovine Serum, heat inactivated (FBS HI, Gibco 10082-147), 1× non-essential amino acids (NEAA, Gibco 11140-050), and 1 mM sodium pyruvate (Gibco 11360-070). Cultures were maintained in a humidified incubator at 37° C. under 5% CO2/95% air.
For compound testing in 0% FBS, MDA-MB-453 cells were seeded at a density of 1.5×10^4 cells per well in white 384-well plates in 20 μl of Minimum Essential Media (MEM) assay media with 1×NEAA, 1 mM sodium pyruvate, and 1 μg/mL human insulin (Sigma I9278). Compounds dissolved in 10 mM stock solutions in DMSO were serially diluted 1:3 in DMSO to generate a 10-point dilution series and plated using an acoustic liquid handler system (Echo 550 Series Liquid Handler, Labcyte). A 5× intermediate compound dilution plate in MEM with 1×NEAA and 1 mM sodium pyruvate (150 μM starting compound concentration in 1.5% DMSO) was then prepared. Five μl of the intermediate serially diluted compounds were added to the cell plate to final concentrations ranging from […] in 0.3% DMSO. 0.3% DMSO alone was used to establish the maximum (MAX) signal and GDC-0032 at a final concentration of 1 μM was used as a reference compound for the minimum (MIN) signal. After 3 hours treatment, the medium was removed, and the cells lysed in 10 μL of 1× SureFire Lysis buffer with shaking for 10 minutes at room temperature. The Acceptor Mix (Reaction Buffer 1+Reaction Buffer 2+Activation Buffer+SureFire Ultra Acceptor Beads) was prepared by diluting Activation buffer 25-fold in combined Reaction Buffer 1 and Reaction Buffer 2. The Acceptor beads were diluted 50-fold in the combined Reaction Buffers. Five μL of Acceptor Mix was added to each well, the plate was sealed and covered with foil and incubated for 1 hour at room temperature. The Donor Mix (dilution buffer+SureFire Ultra Donor Beads) was prepared by diluting Donor Beads 50-fold in dilution buffer. Five μL of the Donor Mix was added to each well and the plate sealed and covered with foil and incubated for 1 hour at room temperature in the dark. The plates were read on a Neo2 plate reader instrument from Biotek using standard AlphaLisa settings. Compounds were tested in duplicate and the average % inhibition at each compound concentration was used to generate a single dose response curve. The data were processed using the Genedata-Screener tool. Relative IC50 values were determined using luminescence units by calculating percent inhibition with respect to the in-plate “MIN” (GDC-0032 reference control) and “MAX” (DMSO) controls. The data was analyzed using a 4-parameter nonlinear logistic equation (four-parameter logistic concentration-response curve): Y=bottom+[(top−bottom)/1+(X/IC50)slope] where Y=% inhibition, X=concentration of inhibitor, bottom=minimum value of y attained by curve-fit, top=maximum value of y attained by curve-fit and slope=steepness of curve at the IC50. % Inhibition=[(signal at X−median Min)/(median Max−median Min)]×100 IC50: concentration of compound that reduces a given response (ligand binding, enzyme response) by 50%. Relative IC50: concentration giving half the compound's maximum response.

[3] = biological target: T2, PI3K-α (PIK3CA) H1047R mutant, p110α/p85α complex (Homo sapiens, UniProt P42336, H1047R); test: PI3K-alpha kinase (PIK3CA) biochemical activity, ADP-Glo, H1047R mutant; conditions: Soy PI lipid substrate
T2 construct: Recombinant, catalytically active human full length PIK3KA Wild-type and H1047R mutant; 6×His (N); purchased EMD Millipore Sigma 14-792M
T2 sequence (P42336 whole entry H1047R): as the sequence (P42336 whole entry) above, with H1047R counted along it
T2 sequence (P27986 whole entry partner): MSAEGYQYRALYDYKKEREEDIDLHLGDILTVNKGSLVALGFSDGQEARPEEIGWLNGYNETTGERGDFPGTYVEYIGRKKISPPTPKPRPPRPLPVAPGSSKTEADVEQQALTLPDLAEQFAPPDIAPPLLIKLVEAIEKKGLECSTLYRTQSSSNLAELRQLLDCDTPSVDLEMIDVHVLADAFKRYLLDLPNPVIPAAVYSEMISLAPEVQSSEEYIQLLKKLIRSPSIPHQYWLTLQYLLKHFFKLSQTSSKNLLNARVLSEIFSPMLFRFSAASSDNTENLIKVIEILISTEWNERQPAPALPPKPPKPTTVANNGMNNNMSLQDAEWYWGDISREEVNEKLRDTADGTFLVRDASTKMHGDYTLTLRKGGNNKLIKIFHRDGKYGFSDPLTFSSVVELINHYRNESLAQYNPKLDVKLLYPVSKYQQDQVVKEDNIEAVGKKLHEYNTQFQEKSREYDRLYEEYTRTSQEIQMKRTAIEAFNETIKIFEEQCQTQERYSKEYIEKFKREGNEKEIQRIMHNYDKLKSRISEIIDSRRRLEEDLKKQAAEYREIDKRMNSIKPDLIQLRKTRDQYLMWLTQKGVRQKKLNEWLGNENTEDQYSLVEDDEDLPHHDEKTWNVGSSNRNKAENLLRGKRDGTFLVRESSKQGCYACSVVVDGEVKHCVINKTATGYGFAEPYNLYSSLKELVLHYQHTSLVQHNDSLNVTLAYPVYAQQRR
Summary of the method: as §1

Q: How did the IC50 [1] turn out when `Cc1cc(C(C)Nc2ccccc2C(=O)O)c2oc(-c3cc4ccccc4[nH]3)cc(=O)c2c1` (single isomer, unassigned) [Example 68, 2-[1-[2-(1H-Indol-2-yl)-6-methyl-4-oxo-chromen-8-yl]ethylamino]benzoic acid] was run?
A: 500 to 1000 nM

Q: What about the IC50 [2] of the same compound?
A: < 50 nM

Q: And the IC50 [3]?
A: < 500 nM

Q: With `Cc1cc(C(C)Nc2ccccc2C(=O)O)c2oc(-c3ccc4c(c3)c(C)nn4C)cc(=O)c2c1` (single isomer, unassigned) [Example 59, 2-[1-[2-(1,3-Dimethylindazol-5-yl)-6-methyl-4-oxo-chromen-8-yl]ethylamino]benzoic acid] as the compound, how does the IC50 [2] read?
A: < 50 nM

Q: And the IC50 [3]?
A: < 500 nM

Q: For `Cc1cc([C@@H](C)Nc2cccnc2C(=O)O)c2oc(-c3ccc4nn(C)cc4c3)cc(=O)c2c1` [Example 226, 3-[[(1R)-1-[6-Methyl-2-(2-methylindazol-5-yl)-4-oxo-chromen-8-yl]ethyl]amino]pyridine-2-carboxylic acid], which IC50 [1] is on record?
A: 1000 to 5000 nM

Q: And the IC50 [2]?
A: 100 to 500 nM

Q: And the IC50 [3]?
A: 500 to 1000 nM

Q: Which IC50 [1] does the source give for `Cc1cc([C@@H](C)Nc2cccnc2C(=O)O)c2oc(-c3nn(C)c4ccccc34)cc(=O)c2c1` [Example 232, 3-[[(1R)-1-[6-Methyl-2-(1-methylindazol-3-yl)-4-oxo-chromen-8-yl]ethyl]amino]pyridine-2-carboxylic acid] here?
A: > 10000 nM

Q: What about the IC50 [2] of the same compound?
A: 100 to 500 nM

Q: What about the IC50 [3] of the same compound?
A: 500 to 1000 nM

Q: For `Cc1cc([C@@H](C)Nc2ccccc2C(=O)O)c2oc(-c3ccc4nc(C)oc4c3)c(C)c(=O)c2c1` [Example 261, 2-[[(1R)-1-[3,6-Dimethyl-2-(2-methyl-1,3-benzoxazol-6-yl)-4-oxo-chromen-8-yl]ethyl]amino]benzoic acid], which IC50 [1] is on record?
A: 500 to 1000 nM

Q: And the IC50 [2]?
A: < 50 nM

Q: What about the IC50 [3] of the same compound?
A: < 500 nM

Q: How did the IC50 [1] turn out when `Cc1cc(C(C)Nc2ccc(Cl)nc2C(=O)O)c2oc(-c3ccc4nc(C)cn4c3)c(C)c(=O)c2c1` (single isomer, unassigned) [Example 178, 6-Chloro-3-[1-[3,6-dimethyl-2-(2-methylimidazo[1,2-a]pyridin-6-yl)-4-oxo-chromen-8-yl]ethylamino]pyridine-2-carboxylic acid] was run?
A: 500 to 1000 nM

Q: What about the IC50 [2] of the same compound?
A: 50 to 100 nM

Q: What about the IC50 [3] of the same compound?
A: < 500 nM

Q: For `Cc1cc([C@@H](C)Nc2ccc(Cl)cc2C(=O)O)c2oc(-c3ccc4nn(C)cc4c3)c(C)c(=O)c2c1` [Example 258, 5-Chloro-2-[[(1R)-1-[3,6-dimethyl-2-(2-methylindazol-5-yl)-4-oxo-chromen-8-yl]ethyl]amino]benzoic acid], which IC50 [1] is on record?
A: 500 to 1000 nM

Q: And the IC50 [2]?
A: < 50 nM

Q: What about the IC50 [3] of the same compound?
A: < 500 nM

Q: How did the IC50 [1] turn out when `Cc1cc([C@@H](C)Nc2ccccc2C(=O)O)c2oc(-c3cc4cnccc4o3)c(C(F)(F)F)c(=O)c2c1` [Example 209, 2-[[(1R)-1-[2-Furo[3,2-c]pyridin-2-yl-6-methyl-4-oxo-3-(trifluoromethyl)chromen-8-yl]ethyl]amino]benzoic acid] was run?
A: 500 to 1000 nM

Q: And the IC50 [2]?
A: < 50 nM

Q: And the IC50 [3]?
A: < 500 nM

Q: What does the source list for `COc1ccc2nc(-c3cc(=O)c4cc(C)cc([C@@H](C)Nc5ccccc5C(=O)O)c4o3)ccc2n1` [Example 255, 2-[[(1R)-1-[2-(6-Methoxy-1,5-naphthyridin-2-yl)-6-methyl-4-oxo-chromen-8-yl]ethyl]amino]benzoic acid]?
A: IC50 [1]: 1000 to 5000 nM; IC50 [2]: 50 to 100 nM; IC50 [3]: 500 to 1000 nM

Q: What does the source list for `Cc1cc([C@@H](C)Nc2cccc(F)c2C(=O)O)c2oc(-c3ccc4nn(C)cc4c3)c(C)c(=O)c2c1` [Example 227, 2-[[(1R)-1-[3,6-Dimethyl-2-(2-methylindazol-5-yl)-4-oxo-chromen-8-yl]ethyl]amino]-6-fluoro-benzoic acid]?
A: IC50 [1]: 500 to 1000 nM; IC50 [2]: < 50 nM; IC50 [3]: < 500 nM

Q: Which results are given for `CC(Nc1ccc(Cl)nc1C(=O)O)c1cc(C(F)(F)F)cc2c(=O)cc(-c3ccc4cnn(C)c4c3)oc12` (single isomer, unassigned) [Example 108, 6-Chloro-3-[1-[2-(1-methylindazol-6-yl)-4-oxo-6-(trifluoromethyl)chromen-8-yl]ethylamino]pyridine-2-carboxylic acid]?
A: IC50 [1]: 500 to 1000 nM; IC50 [2]: < 50 nM; IC50 [3]: < 500 nM

Q: For `Cc1cc(C(C)Nc2ccccc2C(=O)O)c2oc(-n3ncc4c(F)cccc43)cc(=O)c2c1` (single isomer, unassigned) [Example 86], which IC50 [1] is on record?
A: 500 to 1000 nM

Q: What about the IC50 [2] of the same compound?
A: 50 to 100 nM

Q: What about the IC50 [3] of the same compound?
A: < 500 nM

Q: Which results are given for `Cc1cc([C@@H](C)Nc2cccc(F)c2C(=O)O)c2oc(-c3ccc4nc(C)sc4n3)cc(=O)c2c1` [Example 257, 2-Fluoro-6-[[(1R)-1-[6-methyl-2-(2-methylthiazolo[5,4-b]pyridin-5-yl)-4-oxo-chromen-8-yl]ethyl]amino]benzoic acid]?
A: IC50 [1]: 1000 to 5000 nM; IC50 [2]: < 50 nM; IC50 [3]: < 500 nM

Q: Which results are given for `Cc1cc(C(C)Nc2ccc(Cl)nc2C(=O)O)c2oc(-c3cc(C)c4nn(C)cc4c3)cc(=O)c2c1` (single isomer, unassigned) [Example 188, 6-Chloro-3-[1-[2-(2,7-dimethylindazol-5-yl)-6-methyl-4-oxo-chromen-8-yl]ethylamino]pyridine-2-carboxylic acid]?
A: IC50 [1]: 500 to 1000 nM; IC50 [2]: < 50 nM; IC50 [3]: < 500 nM

Q: With `Cc1cc([C@@H](C)Nc2ccc(F)c(F)c2C(=O)O)c2oc(-c3ccc4nn(C)cc4c3)c(C)c(=O)c2c1` [Example 204, 6-[[(1R)-1-[3,6-Dimethyl-2-(2-methylindazol-5-yl)-4-oxo-chromen-8-yl]ethyl]amino]-2,3-difluoro-benzoic acid] as the compound, how does the IC50 [1] read?
A: 500 to 1000 nM

Q: What about the IC50 [2] of the same compound?
A: 50 to 100 nM

Q: And the IC50 [3]?
A: < 500 nM

Q: Which results are given for `Cc1cc([C@@H](C)Nc2ccc(Cl)nc2C(=O)O)c2oc(-c3cc4ccccc4[nH]3)c(C)c(=O)c2c1` [Example 196, 6-Chloro-3-[[(1R)-1-[2-(1H-indol-2-yl)-3,6-dimethyl-4-oxo-chromen-8-yl]ethyl]amino]pyridine-2-carboxylic acid]?
A: IC50 [1]: 1000 to 5000 nM; IC50 [2]: < 50 nM; IC50 [3]: < 500 nM

Q: For `Cc1cc(C(C)Nc2ccccc2C(=O)O)c2oc(-c3cc4ccncc4o3)cc(=O)c2c1` (single isomer, unassigned) [Example 40, 2-[1-(2-Furo[2,3-c]pyridin-2-yl-6-methyl-4-oxo-chromen-8-yl)ethylamino]benzoic acid], which IC50 [1] is on record?
A: 5000 to 10000 nM

Q: And the IC50 [2]?
A: 100 to 500 nM

Q: What about the IC50 [3] of the same compound?
A: 1000 to 5000 nM

Q: Which results are given for `Cc1cc(C(C)Nc2ccccc2C(=O)O)c2oc(-c3ccc4cn[nH]c4c3)c(C)c(=O)c2c1` (single isomer, unassigned) [Example 120, 2-[1-[2-(1H-Indazol-6-yl)-3,6-dimethyl-4-oxo-chromen-8-yl]ethylamino]benzoic acid]?
A: IC50 [1]: 500 to 1000 nM; IC50 [2]: < 50 nM; IC50 [3]: < 500 nM

Q: For `Cc1cc(C(C)Nc2ccc(C)nc2C(=O)O)c2oc(-c3ccc4nn(C)cc4c3)cc(=O)c2c1` (single isomer, unassigned) [Example 180, 6-Methyl-3-[1-[6-methyl-2-(2-methylindazol-5-yl)-4-oxo-chromen-8-yl]ethylamino]pyridine-2-carboxylic acid], which IC50 [1] is on record?
A: 1000 to 5000 nM

Q: And the IC50 [3]?
A: < 500 nM

Q: With `Cc1cc(C(C)Nc2ccccc2C(=O)O)c2oc(-n3nnc4ccccc43)cc(=O)c2c1` (single isomer, unassigned) [Example 85, 2-[1-[2-(Benzotriazol-1-yl)-6-methyl-4-oxo-chromen-8-yl]ethylamino]benzoic acid] as the compound, how does the IC50 [1] read?
A: 1000 to 5000 nM

Q: And the IC50 [3]?
A: < 500 nM

From patent US11878970B2, “Allosteric chromenone inhibitors of phosphoinositide 3-kinase (PI3K) for the treatment of disease” (Petra Pharma Corporation, priority 2021, dated 2024)
